Results taken from patent US9908859B2, “Lysine demethylase inhibitors for myeloproliferative disorders” (Oryzon Genomics S.A., priority 2011, dated 2018).
pIC50: −log10 of the molar value.

Columns and labels:
[1] = tested on: platelets; experiment: Platelet levels in mice after 5 consecutive once daily injections; format: in vivo, mice (Hsd:Athymic Nude-Foxn1nu); conditions: 60 min after last dose
Experimental: On the fifth day, 60 min after the administration, mice were sacrificed and blood was collected in sodium citrate-containing tubes for haemogram analysis. Platelet levels were determined and referred as % of platelets compared with the levels found in mice treated with vehicle. Platelet levels were determined in a standard hematology analyzer (Abacus Junior Vet, from Diatron) following the manufacturer's instructions.
20% 2-hydroxypropyl-β-cyclodextrin in H2O was used as a vehicle. When necessary, 10% DMSO was also added in the vehicle. Each day, compounds were administered in a single intraperitoneal injection with administration volumes of 15 ml/kg.
Mice strain was Hsd:Athymic Nude-Foxn1nu. Animals were maintained in air and temperature controlled cages with regular supply of water and food.

[2] = tested on: H3K4 methylation in SH-SY5Y cells; experiment: Western blot for dimethylated H3-K4 in SH-SY5Y cells; format: cell-based
Description: B-actin was used as a loading control.

[3] = target: T1, Human recombinant monoamine oxidase MAO-A (Homo sapiens, UniProt P21397); experiment: MAO-A inhibition, kynuramine fluorescence assay; format: biochemical
T1 construct: purchased Sigma Aldrich
T1 sequence (P21397 1-527): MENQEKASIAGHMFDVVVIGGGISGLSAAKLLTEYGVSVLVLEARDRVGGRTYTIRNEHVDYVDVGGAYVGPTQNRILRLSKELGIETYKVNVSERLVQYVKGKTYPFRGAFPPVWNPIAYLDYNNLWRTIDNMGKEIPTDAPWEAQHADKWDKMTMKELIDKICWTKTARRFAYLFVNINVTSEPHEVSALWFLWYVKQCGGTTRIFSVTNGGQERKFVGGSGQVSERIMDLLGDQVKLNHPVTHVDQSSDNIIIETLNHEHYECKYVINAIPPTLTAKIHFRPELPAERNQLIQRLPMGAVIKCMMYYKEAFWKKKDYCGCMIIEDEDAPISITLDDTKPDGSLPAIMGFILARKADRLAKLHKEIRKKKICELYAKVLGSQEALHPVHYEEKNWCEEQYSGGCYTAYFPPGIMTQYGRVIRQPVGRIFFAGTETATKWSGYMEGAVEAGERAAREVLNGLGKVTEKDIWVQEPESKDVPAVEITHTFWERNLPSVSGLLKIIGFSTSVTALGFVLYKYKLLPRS
Description: (§1) Human recombinant monoamine oxidase proteins MAO-A and MAO-B were purchased from Sigma Aldrich. MAOs catalyze the oxidative deamination of primary, secondary and tertiary amines. In order to monitor MAO enzymatic activities and/or their inhibition rate by inhibitor(s) of interest, a fluorescent-based (inhibitor)-screening assay was set up. 3-(2-Aminophenyl)-3-oxopropanamine (kynuramine dihydrobromide, Sigma Aldrich), a non fluorescent compound was chosen as a substrate. Kynuramine is a non-specific substrate for both MAOs activities. While undergoing oxidative deamination by MAO activities, kynuramine is converted into 4-hydroxyquinoline (4-HQ), a resulting fluorescent product.
(§2) The monoamine oxidase activity was estimated by measuring the conversion of kynuramine into 4-hydroxyquinoline. […]
(§3) After leaving the enzyme(s) interacting with the inhibitor, 60 to 90 μM of kynuramine was added to each reaction for MAO-B and MAO-A assay respectively, and the reaction was left for 1 hour at 37° C. in the dark. […] The conversion of kynuramine to 4-hydroxyquinoline, was monitored by fluorescence (excitation at 320 nm, emission at 360 nm) using a microplate reader (Infinite 200, Tecan). Arbitrary units were used to measure levels of fluorescence produced in the absence and/or in the presence of inhibitor.
(§4) The Ki (IC50) of each inhibitor was determined at Vmax/2.

[4] = target: LSD1 (Homo sapiens, UniProt O60341); experiment: LSD1 demethylase inhibition, Amplex Red peroxide/peroxidase-coupled assay with di-methylated H3-K4 peptide; format: biochemical; parameters: purchased BPS Bioscience Inc
Description: Compounds for use in the methods of the invention can be identified by their ability to inhibit LSD1. The ability of the compounds of the invention to inhibit LSD1 can be tested as follows. Human recombinant LSD1 protein was purchased from BPS Bioscience Inc. In order to monitor LSD1 enzymatic activity and/or its inhibition rate by our inhibitor(s) of interest, di-methylated H3-K4 peptide (Millipore) was chosen as a substrate. The demethylase activity was estimated, under aerobic conditions, by measuring the release of H2O2 produced during the catalytic process, using the Amplex® Red peroxide/peroxidase-coupled assay kit (Invitrogen).
Within the experiment, each concentration of inhibitor was tested in triplicate. […] The enzymatic reactions were set up in a 50 mM sodium phosphate, pH 7.4 buffer. […] The conversion of the Amplex® Red reagent to resorufin due to the presence of H2O2 in the assay, was monitored by fluorescence (excitation at 540 nm, emission at 590 nm) using a microplate reader (Infinite 200, Tecan). […]
The maximum demethylase activity of LSD1 was obtained in the absence of inhibitor and corrected for background fluorescence in the absence of LSD1. […]

[5] = target: T2, Human recombinant monoamine oxidase MAO-B (Homo sapiens, UniProt P27338); experiment: MAO-B inhibition, kynuramine fluorescence assay; format: biochemical
T2 construct: purchased Sigma Aldrich
T2 sequence (P27338 1-520): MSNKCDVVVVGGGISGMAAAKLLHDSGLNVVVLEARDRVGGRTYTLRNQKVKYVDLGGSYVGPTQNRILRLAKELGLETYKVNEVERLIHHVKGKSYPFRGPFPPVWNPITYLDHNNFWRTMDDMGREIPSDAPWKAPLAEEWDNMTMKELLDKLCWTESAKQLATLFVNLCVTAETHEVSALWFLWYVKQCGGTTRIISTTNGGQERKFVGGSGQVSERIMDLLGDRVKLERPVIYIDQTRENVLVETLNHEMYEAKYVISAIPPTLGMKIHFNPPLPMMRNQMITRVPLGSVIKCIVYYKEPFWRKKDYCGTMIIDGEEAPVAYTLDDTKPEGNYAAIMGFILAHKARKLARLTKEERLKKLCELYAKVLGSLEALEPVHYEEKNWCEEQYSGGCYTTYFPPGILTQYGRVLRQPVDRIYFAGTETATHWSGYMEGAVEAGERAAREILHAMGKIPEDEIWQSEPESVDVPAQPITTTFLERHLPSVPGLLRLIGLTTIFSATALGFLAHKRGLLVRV
Description: as §1, §2, §3, §4

[6] = 10 mg/kg i.p. once daily x 5 days
[7] = 20 mg/kg i.p. once daily x 5 days
[8] = 40 mg/kg i.p. once daily x 5 days

pIC50 [3]	pIC50 [4]	Structure (SMILES)	% platelet vs. Vehicle [1, 6] [%]	% platelet vs. Vehicle [1, 7] [%]	% platelet vs. Vehicle [1, 8] [%]	also measured
–	–	CN1CCN(C(=O)CN[C@H]2C[C@@H]2c2ccc(OCc3ccccc3)cc2)CC1 (racemic) [Compound 3]	5	–	–	% platelet vs. Vehicle ([1]; 1 mg/kg i.p. once daily x 5 days): 46%; % platelet vs. Vehicle ([1]; 3 mg/kg i.p. once daily x 5 days): 16%
< 5.70	> 6.70	NC(=O)CN[C@@H]1C[C@H]1c1ccc(OCc2ccccc2)cc1 (relative stereo) [Compound 1]	66	55	34	H3K4 methylation (western blot) ([2]; SH-SY5Y cells grown with compound for 1, 2 and 3 days, Dual-1 at 100 μM (FIG. 3)): increases H3K4 methylation in cells in a time dependent manner; potency at increasing global dimethylated H3K4 levels as compared to tranylcypromine ([2]; SH-SY5Y cells, 1, 2 and 3 days): ≥ 10 fold; % platelet vs. Vehicle ([1]; 5 mg/kg i.p. once daily x 5 days): 91%
< 6.30	> 6.70	N[C@H]1CCN(CCN[C@H]2C[C@@H]2c2ccc(-c3cccc(C(F)(F)F)c3)cc2)C1 [Compound 5]	–	–	–	pIC50 [5]: < 6.00
–	–	N[C@H]1CC1c1ccc(-c2cccc(O)c2)cc1 (stereo partly shown) [Compound 6]	–	–	–	% platelet vs. Vehicle ([1]; 17 mg/kg i.p. once daily x 5 days): 56%; % platelet vs. Vehicle ([1]; 34 mg/kg i.p. once daily x 5 days): 46%; % platelet vs. Vehicle ([1]; 52 mg/kg i.p. once daily x 5 days): 63%
–	–	CS(=O)(=O)Nc1cccc(-c2ccc(C3C[C@@H]3N)cn2)c1 (stereo partly shown) [Compound 7]	–	68	44	–
